# From patent US5098826A, “Detection, isolation and purification of Clostridium difficile toxin A with toxin receptors” (Virginia Tech Intellectual Properties, Inc., priority 1990, dated 1992)
# B1: Carcinoembryonic Antigen: human protein known to contain the X antigen (protein, UniProt P06731 35-685, looked up)
# Cell adhesion molecule CEACAM5: KLTIESTPFNVAEGKEVLLLVHNLPQHLFGYSWYKGERVDGNRQIIGYVIGTQQATPGPAYSGREIIYPNASLLIQNIIQNDTGFYTLHVIKSDLVNEEATGQFRVYPELPKPSISSNNSKPVEDKDAVAFTCEPETQDATYLWWVNNQSLPVSPRLQLSNGNRTLTLFNVTRNDTASYKCETQNPVSARRSDSVILNVLYGPDAPTISPLNTSYRSGENLNLSCHAASNPPAQYSWFVNGTFQQSTQELFIPNITVNNSGSYTCQAHNSDTGLNRTTVTTITVYAEPPKPFITSNNSNPVEDEDAVALTCEPEIQNTTYLWWVNNQSLPVSPRLQLSNDNRTLTLLSVTRNDVGPYECGIQNELSVDHSDPVILNVLYGPDDPTISPSYTYYRPGVNLSLSCHAASNPPAQYSWLIDGNIQQHTQELFISNITEKNSGLYTCQANNSASGHSRTTVKTITVSAELPKPSISSNNSKPVEDKDAVAFTCEPEAQNTTYLWWVNGQSLPVSPRLQLSNGNRTLTLFNVTRNDARAYVCGIQNSVSANRSDPVTLDVLYGPDTPIISPPDSSYLSGANLNLSCHSASNPSPQYSWRINGIPQQHTQVLFIAKITPNNNGTYACFVSNLATGRNNSIVKSITVSASGTSPGLSA
# Experiments:
# toxin A = toxin A (Clostridioides difficile, UniProt P16154); conditions: cited from earlier work; for toxin A binding: Krivan et al., U.S. Pat. No. 4,863,852, Clark et al.
# toxin A, sequence (P16154 whole entry, looked up): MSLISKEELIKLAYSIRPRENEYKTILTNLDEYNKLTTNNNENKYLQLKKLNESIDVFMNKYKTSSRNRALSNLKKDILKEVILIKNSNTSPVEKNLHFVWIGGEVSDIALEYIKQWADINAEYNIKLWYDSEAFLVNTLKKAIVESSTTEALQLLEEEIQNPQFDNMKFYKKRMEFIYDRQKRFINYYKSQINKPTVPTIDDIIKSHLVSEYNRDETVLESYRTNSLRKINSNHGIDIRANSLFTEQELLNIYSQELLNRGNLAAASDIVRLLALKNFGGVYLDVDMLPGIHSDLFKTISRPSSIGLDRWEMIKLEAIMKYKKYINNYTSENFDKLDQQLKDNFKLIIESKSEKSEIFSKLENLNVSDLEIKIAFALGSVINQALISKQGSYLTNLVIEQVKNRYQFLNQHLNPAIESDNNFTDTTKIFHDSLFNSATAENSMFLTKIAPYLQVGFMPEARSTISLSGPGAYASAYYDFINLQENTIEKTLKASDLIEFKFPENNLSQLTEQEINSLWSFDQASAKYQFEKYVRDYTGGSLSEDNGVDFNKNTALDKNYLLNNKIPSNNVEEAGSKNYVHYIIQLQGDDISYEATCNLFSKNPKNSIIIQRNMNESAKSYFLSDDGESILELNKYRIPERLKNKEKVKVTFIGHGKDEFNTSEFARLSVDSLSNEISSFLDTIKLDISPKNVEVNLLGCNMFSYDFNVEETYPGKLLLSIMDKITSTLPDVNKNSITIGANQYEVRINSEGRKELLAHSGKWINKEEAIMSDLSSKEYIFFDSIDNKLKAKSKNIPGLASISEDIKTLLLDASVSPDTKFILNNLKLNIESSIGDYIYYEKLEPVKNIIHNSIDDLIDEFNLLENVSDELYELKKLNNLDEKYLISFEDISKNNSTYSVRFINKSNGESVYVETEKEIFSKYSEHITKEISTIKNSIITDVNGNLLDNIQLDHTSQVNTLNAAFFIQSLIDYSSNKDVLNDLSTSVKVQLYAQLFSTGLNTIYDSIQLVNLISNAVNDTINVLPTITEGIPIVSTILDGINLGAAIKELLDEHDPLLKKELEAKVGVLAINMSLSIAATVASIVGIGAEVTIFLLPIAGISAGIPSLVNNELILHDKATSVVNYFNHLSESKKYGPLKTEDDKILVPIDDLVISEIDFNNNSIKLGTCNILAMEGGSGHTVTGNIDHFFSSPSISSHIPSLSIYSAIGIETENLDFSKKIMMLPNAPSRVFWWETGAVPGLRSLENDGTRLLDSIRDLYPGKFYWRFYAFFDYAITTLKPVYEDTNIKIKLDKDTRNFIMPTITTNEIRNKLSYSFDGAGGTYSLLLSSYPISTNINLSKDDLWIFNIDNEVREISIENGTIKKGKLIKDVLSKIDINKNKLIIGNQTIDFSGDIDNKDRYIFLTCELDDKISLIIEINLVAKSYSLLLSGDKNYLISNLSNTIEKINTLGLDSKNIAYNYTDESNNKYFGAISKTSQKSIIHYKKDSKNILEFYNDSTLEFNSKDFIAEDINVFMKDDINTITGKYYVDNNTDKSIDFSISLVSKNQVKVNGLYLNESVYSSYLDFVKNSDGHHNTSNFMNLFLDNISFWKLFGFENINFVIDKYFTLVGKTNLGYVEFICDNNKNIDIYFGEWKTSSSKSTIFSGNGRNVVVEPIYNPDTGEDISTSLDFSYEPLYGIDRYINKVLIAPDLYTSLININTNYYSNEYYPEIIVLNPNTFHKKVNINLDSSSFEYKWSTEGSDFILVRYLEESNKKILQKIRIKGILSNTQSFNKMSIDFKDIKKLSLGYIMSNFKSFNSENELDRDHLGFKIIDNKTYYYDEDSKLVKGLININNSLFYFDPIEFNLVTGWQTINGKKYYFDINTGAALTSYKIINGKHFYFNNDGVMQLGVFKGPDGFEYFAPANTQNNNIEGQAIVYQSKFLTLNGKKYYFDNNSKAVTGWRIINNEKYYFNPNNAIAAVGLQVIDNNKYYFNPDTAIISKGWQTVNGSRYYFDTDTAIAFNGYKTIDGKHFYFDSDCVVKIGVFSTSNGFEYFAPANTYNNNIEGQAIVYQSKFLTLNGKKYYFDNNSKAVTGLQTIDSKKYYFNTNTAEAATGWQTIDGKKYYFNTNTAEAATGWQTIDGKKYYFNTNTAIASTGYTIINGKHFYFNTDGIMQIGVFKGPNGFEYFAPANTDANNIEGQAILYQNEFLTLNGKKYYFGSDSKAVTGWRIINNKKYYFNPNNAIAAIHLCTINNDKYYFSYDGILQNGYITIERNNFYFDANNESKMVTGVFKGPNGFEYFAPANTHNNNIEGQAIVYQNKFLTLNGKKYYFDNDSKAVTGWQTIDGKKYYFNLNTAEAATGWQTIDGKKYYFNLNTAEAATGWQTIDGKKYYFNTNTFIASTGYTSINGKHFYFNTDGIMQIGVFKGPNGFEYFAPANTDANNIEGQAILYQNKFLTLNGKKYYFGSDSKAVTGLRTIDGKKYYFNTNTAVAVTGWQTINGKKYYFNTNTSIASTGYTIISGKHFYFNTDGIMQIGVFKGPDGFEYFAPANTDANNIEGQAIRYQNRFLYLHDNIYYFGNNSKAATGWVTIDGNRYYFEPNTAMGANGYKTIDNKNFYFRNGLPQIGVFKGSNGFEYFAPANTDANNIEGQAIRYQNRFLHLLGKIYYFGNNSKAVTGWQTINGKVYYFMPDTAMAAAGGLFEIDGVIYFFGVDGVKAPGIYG
# C. difficile toxin A = target: T1, C. difficile toxin A (Clostridioides difficile, UniProt P16154); test: Crossed immunoelectrophoresis (X-IEP) toxin A binding assay; parameters: species or system Clostridium difficile; conditions: 100 μg toxin A mixed with 500 μg/ml conjugate, on ice 10 minutes, electrophoresis at 4° C., pH 8.6
# T1 construct: The organism was cultured, and the toxin A was purified from the culture filtrate; made in house; host or cells: C. difficile VPI strain 10463 (natural producer, culture filtrate; not recombinant)
# Description: 100 μg toxin A and 500 μg/ml of each of the oligosaccharide-HSA conjugates of Table 1 in PBS were mixed and incubated on ice for 10 minutes, then 5 μl of this mixture was assayed by X-IEP for toxin A binding on a 5×5 cm glass slide substantially as described by Lyerly et al., J. Clin. Microbiol. 17, 72-78 (1983). Briefly, wells (1 mm in diameter) were cut in gels composed of 1.2% (wt/vol) low electroendosmotic agarose (Sigma Chemical Co.) in 0.025M Tris-Tricine buffer (0.6 g agarose in 50 ml buffer) (pH 8.6). The Tris-Tricine buffer is prepared by combining the following and adding deionized water up to a volume of 1 L: Tris, 9.8 g; Ca-lactate, 0.106 g; Tricine, 4.3 g; NaN3, 0.2 g. For the first dimension, oligosaccharide-HSA sample (5 μl) was placed in a sample well in the lower corner of the plate. 0.1% bromphenol blue was placed in an upper corner well as a tracing dye, and the plate was subjected to electrophoresis at 10 V/cm at constant current and 4° C. The second dimension of the plate consisted of a 1.2% (wt/vol) agarose gel containing 0.1 ml of goat antiserum to C. difficile culture filtrate. Electrophoresis was performed at 10 V/cm for about 3 hours at 4° C. Gels were washed in 20 mM sodium phosphate with 130 mM NaCl, pH 7.4, stained with a staining solution (5 g Coomassie Blue R-250, 450 ml EtOH, […], and 450 ml deionized H2 O), and de-stained in the staining solution minus Coomassie Blue.
# The principle behind the X-IEP assay is that the rate of migration of toxin A in an electric field is dependent on the net charge of the molecule, which is dependant on its isoelectric point and the pH of the electrophoresis medium. Toxin A has a slight negative charge at pH 8.6, which is the pH at which the X-IEP was carried out. The toxin migrates slowly in the applied electric field. HSA, on the other hand, has a relatively high net negative charge at pH 8.6. […]
molecule,measurement,setting,value
"CC(=O)N[C@H]1C(O)O[C@H](CO)[C@@H](O[C@@H]2O[C@H](CO)[C@H](O)[C@H](O[C@H]3O[C@H](CO)[C@H](O)[C@H](O)[C@H]3O)[C@H]2O[C@@H]2O[C@@H](C)[C@@H](O)[C@@H](O)[C@@H]2O)[C@@H]1O (some centres unmarked) [Galα(1→3)[Fucα-(1→2)]Galβ(1→4)GlcNAc, Galα(1→3)[Fucα(1→2)]Galβ(1→4)GlcNAc]",toxin A binding,toxin A,does not bind
"CC(=O)N[C@H]1[C@H](O[C@H]2[C@@H](O)[C@@H](CO)O[C@@H](O[C@H]3[C@H](O)[C@@H](O)C(O)O[C@@H]3CO)[C@@H]2O)O[C@H](CO)[C@@H](O[C@@H]2O[C@H](CO)[C@H](O)[C@H](O)[C@H]2O)[C@@H]1O (some centres unmarked) [LNnT, Galβ(1→4)GlcNAcβ(1→3)Galβ(1→4)Glc]",Toxin A Binding X-IEP (altered migration of toxin A),C. difficile toxin A,did not bind the toxin
same,toxin A binding,toxin A,prevents toxin A from binding
CC(=O)N[C@H]1C(O)O[C@H](CO)[C@@H](O[C@@H]2O[C@H](CO)[C@H](O)[C@H](O[C@H]3O[C@H](CO)[C@H](O)[C@H](O)[C@H]3O)[C@H]2O)[C@@H]1O (some centres unmarked) [Galα(1→3)Galβ(1→4)GlcNAc],toxin A binding at 37° C.,"toxin A; 37° C., U.S. Pat. No. 4,863,852",not detected
same,toxin A binding,toxin A,binds
same,temperature of maximal binding of toxin A,"toxin A; U.S. Pat. No. 4,863,852",4 °C
Secretory Component: human protein known to contain the X antigen,Toxin A Binding X-IEP (altered migration of toxin A),C. difficile toxin A; listed as SC,same behavior
B1,Toxin A Binding X-IEP (altered migration of toxin A),C. difficile toxin A; listed as CEA,same behavior
